Measured values taken from PubChem BioAssay AID248 (DTP/NCI, 2004).
Several values for one entry are separate records, joined by “and”; a condition that tells them apart may be missing. Equal entries are not always repeated. Toxic doses and inconclusive results are not listed. Rule as the data show it: active = T/C of 150% or more; inactive = T/C below 125%.

Tested on: L1210 leukemia ip in BDF1 mice, survival T/C
Assay: NCI In Vivo Anticancer Drug Screen. Data for tumor model L1210 Leukemia (intraperitoneal) in B6D2F1 (BDF1) mice
Settings: endpoint: mean survival time, higher = longer survival
How it was run: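 Transplanted-tumor mice were given test agent; controls received vehicle only. Survival readings from the two groups were divided (treated over control).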

[1] = dose: 100.0 mg/kg/injection, schedule: Q01DX009 (ip), vehicle: saline
[2] = dose: 100.0 mg/kg/injection, schedule: Q04DX003 (ip), vehicle: saline
[3] = dose: 200.0 mg/kg/injection, schedule: Q04DX003 (ip), vehicle: saline
[4] = dose: 100.0 mg/kg/injection, schedule: Q01DX001 (ip), vehicle: saline
[5] = dose: 200.0 mg/kg/injection, schedule: Q01DX001 (ip), vehicle: saline
[6] = dose: 400.0 mg/kg/injection, schedule: Q01DX001 (ip), vehicle: saline
[7] = dose: 100.0 mg/kg/injection, schedule: Q01DX009 (ip), vehicle: Klucel (hydroxypropylcellulose) (HPC)
[8] = dose: 100.0 mg/kg/injection, schedule: Q04DX003 (ip), vehicle: Klucel (hydroxypropylcellulose) (HPC)
[9] = dose: 200.0 mg/kg/injection, schedule: Q01DX009 (ip), vehicle: Klucel (hydroxypropylcellulose) (HPC)
[10] = dose: 200.0 mg/kg/injection, schedule: Q04DX003 (ip), vehicle: Klucel (hydroxypropylcellulose) (HPC)
[11] = dose: 400.0 mg/kg/injection, schedule: Q01DX009 (ip), vehicle: Klucel (hydroxypropylcellulose) (HPC)
[12] = dose: 400.0 mg/kg/injection, schedule: Q04DX003 (ip), vehicle: Klucel (hydroxypropylcellulose) (HPC)
[13] = dose: 100.0 mg/kg/injection, schedule: Q01DX009 (ip), vehicle: saline with Tween-80
[14] = dose: 200.0 mg/kg/injection, schedule: Q01DX009 (ip), vehicle: saline with Tween-80
[15] = dose: 400.0 mg/kg/injection, schedule: Q01DX009 (ip), vehicle: saline with Tween-80
[16] = dose: 400.0 mg/kg/injection, schedule: Q04DX003 (ip), vehicle: saline
[17] = dose: 6.25 mg/kg/injection, schedule: Q04DX003 (ip), vehicle: saline

Measured: T/C

CC(=O)c1ccc(F)c(C)c1
inactive: dose: 100.0 mg/kg/injection, schedule: Q04DX003 (ip), vehicle: saline sonified 93 % of control | dose: 200.0 mg/kg/injection, schedule: Q04DX003 (ip), vehicle: saline sonified 97 % of control | dose: 400.0 mg/kg/injection, schedule: Q04DX003 (ip), vehicle: saline sonified 93 % of control

OC1CCC2=C(C1)C1CCC2C1 (centres undefined)
inactive: dose: 12.5 mg/kg/injection, schedule: Q04DX003 (ip), vehicle: saline with Tween-80 96 % of control | dose: 25.0 mg/kg/injection, schedule: Q04DX003 (ip), vehicle: saline with Tween-80 89 % of control | dose: 50.0 mg/kg/injection, schedule: Q04DX003 (ip), vehicle: saline with Tween-80 98 % of control

C/C=C\C#N
inactive: [1] 106 % of control | [2] 103 % of control | dose: 200.0 mg/kg/injection, schedule: Q01DX009 (ip), vehicle: saline 108 % of control | [3] 113 % of control

COc1cc(/C(C)=C2/SC(=S)NC2=O)cc(OC)c1OC
inactive: dose: 100.0 mg/kg/injection, schedule: Q01DX001 (ip), vehicle: carboxymethylcellulose (CMC) 92 % of control | dose: 200.0 mg/kg/injection, schedule: Q01DX001 (ip), vehicle: carboxymethylcellulose (CMC) 90 % of control | dose: 400.0 mg/kg/injection, schedule: Q01DX001 (ip), vehicle: carboxymethylcellulose (CMC) 95 % of control

CNc1nc(N)nc2c1nc(Cl)n2C1OC(CO)C(O)C1O (centres undefined)
inactive: [4] 100 % of control | [5] 92 % of control | [6] 96 % of control

CCOC12c3ccccc3N(S(C)(=O)=O)C(C)C1C2(Br)Br (centres undefined)
inactive: [7] 94 % of control | [8] 110 % of control | [9] 94 % of control | [10] 102 % of control | [11] 90 % of control | [12] 109 % of control

CCCCCC(Oc1ccc(Cl)cc1)C(=O)O (centres undefined)
inactive: [8] 104 % of control | [10] 98 % of control

CCCCN(CCCC)CP(=S)(CN(CCCC)CCCC)CN(CCCC)CCCC
inactive: [8] 104 % of control | [10] 104 % of control | [12] 107 % of control

C=CCS(=O)(=O)CC=C
inactive: [13] 92 % of control | [14] 92 % of control | [15] 93 % of control

O=S1(=O)C(c2ccccc2)C(N2CCCCC2)C1C1CC2c3ccccc3C1c1ccccc12 (centres undefined)
inactive: dose: 75.0 mg/kg/injection, schedule: Q01DX001 (ip), vehicle: carboxymethylcellulose (CMC) 91 % of control | dose: 150.0 mg/kg/injection, schedule: Q01DX001 (ip), vehicle: carboxymethylcellulose (CMC) 91 % of control | dose: 300.0 mg/kg/injection, schedule: Q01DX001 (ip), vehicle: carboxymethylcellulose (CMC) 86 % of control

C1CC[N+]2=C(C1)OCCC2
inactive: dose: 30.0 mg/kg/injection, schedule: Q01DX009 (ip), vehicle: saline 93 % of control | dose: 44.0 mg/kg/injection, schedule: Q01DX009 (ip), vehicle: saline 100 % of control | dose: 60.0 mg/kg/injection, schedule: Q01DX009 (ip), vehicle: saline 106 % of control | dose: 66.0 mg/kg/injection, schedule: Q01DX009 (ip), vehicle: saline 103 % of control | [1] 102 % of control and 103 % of control | [2] 101 % of control | dose: 150.0 mg/kg/injection, schedule: Q01DX009 (ip), vehicle: saline 100 % of control and 104 % of control | [3] 101 % of control | [16] 91 % of control

c1ccc2nc(-c3cc4ccccc4s3)ccc2c1
inactive: dose: 100.0 mg/kg/injection, schedule: Q01DX009 (ip), vehicle: saline sonified 96 % of control | [8] 97 % of control | dose: 200.0 mg/kg/injection, schedule: Q01DX009 (ip), vehicle: saline sonified 100 % of control | [10] 95 % of control | dose: 400.0 mg/kg/injection, schedule: Q01DX009 (ip), vehicle: saline sonified 103 % of control | [12] 101 % of control

CC(=O)OCCC(COC(C)=O)n1ccc(=O)[nH]c1=O (centres undefined)
inactive: dose: 100.0 mg/kg/injection, schedule: Q04DX002 (ip), vehicle: saline with Tween-80 91 % of control | dose: 200.0 mg/kg/injection, schedule: Q04DX002 (ip), vehicle: saline with Tween-80 105 % of control | dose: 400.0 mg/kg/injection, schedule: Q04DX002 (ip), vehicle: saline with Tween-80 102 % of control

Cc1ccc(Br)cc1Br
inactive: [4] 96 % of control | [5] 100 % of control | [6] 94 % of control

Cc1ccc(NC(=O)Oc2cc(C)c(Cl)cc2C(C)C)cc1
inactive: [7] 98 % of control | [9] 96 % of control | [11] 100 % of control

N#C/C(N)=C(\C#N)N=CC=N/C(C#N)=C(/N)C#N
inactive: dose: 12.5 mg/kg/injection, schedule: Q01DX009 (ip), vehicle: Klucel (hydroxypropylcellulose) (HPC) 103 % of control | dose: 25.0 mg/kg/injection, schedule: Q01DX009 (ip), vehicle: Klucel (hydroxypropylcellulose) (HPC) 103 % of control | dose: 50.0 mg/kg/injection, schedule: Q01DX009 (ip), vehicle: Klucel (hydroxypropylcellulose) (HPC) 103 % of control | dose: 100.0 mg/kg/injection, schedule: Q01DX001 (ip), vehicle: Klucel (hydroxypropylcellulose) (HPC) 95 % of control

O=C1NC(c2ccc(F)cc2)OC1C(=O)c1ccccc1 (centres undefined)
inactive: [4] 104 % of control | [5] 110 % of control | [6] 104 % of control

C#CC(=O)OC
inactive: dose: 0.78 mg/kg/injection, schedule: Q01DX009 (ip), vehicle: saline 103 % of control | dose: 1.56 mg/kg/injection, schedule: Q01DX009 (ip), vehicle: saline 103 % of control | dose: 1.56 mg/kg/injection, schedule: Q04DX003 (ip), vehicle: saline 103 % of control | dose: 3.12 mg/kg/injection, schedule: Q01DX009 (ip), vehicle: saline 97 % of control | dose: 3.12 mg/kg/injection, schedule: Q04DX003 (ip), vehicle: saline 95 % of control | dose: 4.6 mg/kg/injection, schedule: Q01DX009 (ip), vehicle: saline 98 % of control | [17] 94 % of control | dose: 7.0 mg/kg/injection, schedule: Q01DX009 (ip), vehicle: saline 93 % of control | dose: 10.0 mg/kg/injection, schedule: Q01DX009 (ip), vehicle: saline 101 % of control

C=C[CH2][Sn]([Br])([Br])[CH2]C=C
inactive: [13] 106 % of control | [14] 95 % of control | [15] 95 % of control

FN1C(F)(F)C(F)(F)C(F)(F)C(F)(F)C1(F)F
inactive: dose: 100.0 mg/kg/injection, schedule: Q01DX001 (ip), vehicle: acetone 100 % of control | dose: 200.0 mg/kg/injection, schedule: Q01DX001 (ip), vehicle: acetone 87 % of control | dose: 400.0 mg/kg/injection, schedule: Q01DX001 (ip), vehicle: acetone 92 % of control

CNC(=O)NC
inactive: [2] 94 % of control | [3] 102 % of control | [16] 94 % of control

NNC(=O)c1ccccn1
inactive: dose: 50.0 mg/kg/injection, schedule: Q01DX001 (ip), vehicle: water 98 % of control | dose: 75.0 mg/kg/injection, schedule: Q01DX001 (ip), vehicle: water 98 % of control | dose: 100.0 mg/kg/injection, schedule: Q01DX009 (ip), vehicle: water 97 % of control | dose: 150.0 mg/kg/injection, schedule: Q01DX001 (ip), vehicle: water 102 % of control

Cc1cc2cc3c(=O)[nH]c(=O)[nH]c3nc2cc1C
inactive: [4] 93 % of control | [5] 102 % of control | [6] 91 % of control

CN(C)CCOCCOC(=O)N1c2ccccc2Sc2ccccc21
inactive: dose: 6.25 mg/kg/injection, schedule: Q01DX009 (ip), vehicle: saline 106 % of control | [17] 102 % of control | dose: 12.5 mg/kg/injection, schedule: Q01DX009 (ip), vehicle: saline 95 % of control | dose: 12.5 mg/kg/injection, schedule: Q04DX003 (ip), vehicle: saline 105 % of control | dose: 25.0 mg/kg/injection, schedule: Q01DX009 (ip), vehicle: saline 97 % of control | dose: 25.0 mg/kg/injection, schedule: Q04DX003 (ip), vehicle: saline 97 % of control and 98 % of control | dose: 50.0 mg/kg/injection, schedule: Q01DX009 (ip), vehicle: saline 88 % of control | dose: 50.0 mg/kg/injection, schedule: Q04DX003 (ip), vehicle: saline 107 % of control and 109 % of control | [1] 103 % of control | [2] 102 % of control and 109 % of control
